Test results taken from US4593093A, “Acyl derivatives” (priority 1980, dated 1986).
Structures can show the parent of a compound that is named as a salt. Where two headings read alike, the source gives them in different places.

Assays:
[1] = system: Streptococcus pneumoniae; test: Activity in vitro: minimum inhibitory concentration; assay type: cell-based
[2] = system: Proteus morganii; test: as above; assay type: cell-based; conditions: Morganella morganii
[3] = system: Streptococcus pyogenes; test: Activity in vivo: survival of intraperitoneally infected mice; conditions: sc, 96 h; mice infected i.p. with Streptococcus pyogenes; s.c. twice, 1 h and 3 h after infection; survival on 4th day; read-out: CD50 (dosage at which 50% of the animals survive)
Description: (§1) Groups of 5 mice are infected intraperitoneally with an aqueous suspension of various pathogens. The test substance in physiological sodium chloride solution is administered subcutaneously twice, i.e. 1 hour and 3 hours after the infection. The number of surviving animals is determined on the 4th day. Various dosages are administered and that dosage at which 50% of the experimental animals survive (CD50, mg/kg) is determined by interpolation.

[4] = system: Serratia marcescens; test: as above; conditions: sc, 96 h, mice infected i.p. with Serratia marcescens strain 1, s.c. twice, 1 h and 3 h after infection, survival on 4th day, read-out: CD50 (dosage at which 50% of the animals survive)
Description: as §1

[5] = system: Escherichia coli; test: as above; conditions: sc, 96 h; mice infected i.p. with Escherichia coli; s.c. twice, 1 h and 3 h after infection; survival on 4th day; read-out: CD50 (dosage at which 50% of the animals survive)
Description: as §1

[6] = system: Enterobacter cloacae; test: as above; conditions: sc, 96 h; mice infected i.p. with Enterobacter cloacae; s.c. twice, 1 h and 3 h after infection; survival on 4th day; read-out: CD50 (dosage at which 50% of the animals survive)
Description: as §1

[7] = system: Proteus inconstans; test: Activity in vitro: minimum inhibitory concentration; assay type: cell-based; conditions: Providencia alcalifaciens
[8] = system: Staphylococcus aureus; test: as above; assay type: cell-based
[9] = system: Staphylococcus epidermis; test: as above; assay type: cell-based
[10] = system: Proteus mirabilis; test: as above; assay type: cell-based
[11] = system: Pseudomonas aeruginosa; test: Activity in vivo: survival of intraperitoneally infected mice; conditions: sc, 96 h; mice infected i.p. with Pseudomonas aeruginosa; s.c. three times, 1 h, 3 h and 5 h after infection; survival on 4th day; read-out: CD50 (dosage at which 50% of the animals survive)
Description: as §1
*Administered subcutaneously three times: 1 hour, 3 hours and 5 hours

[12] = system: Citrobacter freundii; test: Activity in vitro: minimum inhibitory concentration; assay type: cell-based
[13] = system: Escherichia coli; test: as above; assay type: cell-based
[14] = system: Enterobacter aerogenes; test: as above; assay type: cell-based; conditions: Klebsiella aerogenes
[15] = system: Serratia marcescens; test: as above; assay type: cell-based
[16] = system: Klebsiella pseumoniae; test: as above; assay type: cell-based
[17] = system: Proteus rettgeri; test: as above; assay type: cell-based; conditions: Providencia rettgeri
[18] = system: Streptococcus faecalis; test: as above; assay type: cell-based; conditions: Enterococcus faecalis
[19] = system: Streptococcus pyogenes; test: as above; assay type: cell-based
[20] = system: Pseudomonas aeruginosa; test: as above; assay type: cell-based
[21] = system: Streptococcus viridans; test: as above; assay type: cell-based
[22] = system: Enterobacter cloacae; test: as above; assay type: cell-based
[23] = Enterobacter aerogenes strain 1
[24] = Enterobacter aerogenes strain 2
[25] = Streptococcus faecalis strain 1
[26] = Streptococcus faecalis strain 2
[27] = Streptococcus pyogenes strain 1, read-out: Minimum inhibitory concentration
[28] = Pseudomonas aeruginosa strain 3
[29] = read-out: Minimum inhibitory concentration, Streptococcus pyogenes strain 2

Row | SMILES | MIC [1] [µg/mL] | MIC [2] [µg/mL] | ED50 [3] [mg/kg] | MIC [7] [µg/mL] | MIC ([8]; Staphylococcus aureus strain 1) [µg/mL] | MIC ([8]; Staphylococcus aureus strain 2) [µg/mL] | MIC ([8]; Staphylococcus aureus strain 3) [µg/mL] | MIC ([8]; Staphylococcus aureus strain 4) [µg/mL] | MIC [9] [µg/mL] | MIC ([10]; Proteus mirabilis strain 3) [µg/mL] | MIC ([10]; Proteus mirabilis strain 4) [µg/mL] | MIC ([10]; Proteus mirabilis strain 5) [µg/mL] | MIC ([12]; Citrobacter freundii strain 1) [µg/mL] | MIC ([12]; Citrobacter freundii strain 2) [µg/mL] | MIC ([13]; Escherichia coli strain 1) [µg/mL] | MIC ([13]; Escherichia coli strain 2) [µg/mL] | MIC ([13]; Escherichia coli strain 3) [µg/mL] | MIC ([13]; Escherichia coli strain 5) [µg/mL] | MIC [14, 23] [µg/mL] | MIC [14, 24] [µg/mL] | other results
1 | CC(=O)OCC1=C(C(=O)O)N2C(=O)[C@@H](NC(=O)/C(=N\OC(C)(C)C(=O)O)c3c[se]c(N)n3)[C@H]2SC1 [Product I, disodium salt] | 0.2 | 0.8 | 2.7 | 0.012 | 50 | 100 | 50 | 100 | 50 | 0.1 | 0.1 | 0.2 | 100 | 1.6 | 1.6 | 0.2 | 0.8 | 0.4 | 0.4 | 0.2 | ED50 [4]: 1.8 mg/kg; ED50 [5]: 0.067 mg/kg; ED50 [6]: > 50 mg/kg; ED50 [11]: 23 mg/kg; MIC ([15]; Serratia marcescens strain 1): 1.6 µg/mL; MIC ([15]; Serratia marcescens strain 2): 3.1 µg/mL; MIC ([15]; Serratia marcescens strain 3): 0.4 µg/mL; MIC ([16]; Klebsiella pseumoniae strain 1): 0.8 µg/mL; MIC ([16]; Klebsiella pseumoniae strain 2): 0.4 µg/mL; MIC ([16]; Klebsiella pseumoniae strain 3): 0.8 µg/mL; MIC [17]: 0.1 µg/mL; MIC [18, 25]: > 100 µg/mL; MIC [18, 26]: > 100 µg/mL; MIC [19, 27]: 0.2 µg/mL; MIC ([19]; Streptococcus pyogenes strain 2, read-out: Minimum inhibitory concentration): 0.05 µg/mL; MIC [20, 28]: 1.6 µg/mL; MIC [21]: 6.3 µg/mL; MIC ([22]; Enterobacter cloacae strain 1): > 100 µg/mL; MIC ([22]; Enterobacter cloacae strain 2): 6.3 µg/mL; MIC ([22]; Enterobacter cloacae strain 3): > 100 µg/mL
2 | CC(C)(O/N=C(\C(=O)N[C@@H]1C(=O)N2C(C(=O)[O-])=C(C[n+]3ccccc3)CS[C@H]12)c1c[se]c(N)n1)C(=O)O [Product K, 1-[[(6R, 7R)-7-[(Z)-2-(2-amino-4-selenazolyl)-2-[(1-carboxy-1-methylethoxy)imino]acetamido]-2-carboxy-8-oxo-5-thia-1-azabicyclo[4.2.0]oct-2-en-3-yl]methyl]pyridinium hydroxide sodium salt (internal salt)] | 0.1 | 0.2 | 0.28 | 0.05 | 12.5 | 50 | 12.5 | 12.5 | 12.5 | 0.4 | 0.1 | 0.05 | 12.5 | 0.4 | 0.4 | 0.1 | 0.8 | 0.4 | 0.4 | 0.2 | ED50 [4]: 0.11 mg/kg; ED50 [11]: 1.1 mg/kg; MIC ([13]; Escherichia coli strain 4): 25 µg/mL; MIC ([15]; Serratia marcescens strain 1): 0.8 µg/mL; MIC ([15]; Serratia marcescens strain 2): 0.8 µg/mL; MIC ([15]; Serratia marcescens strain 3): 0.1 µg/mL; MIC ([16]; Klebsiella pseumoniae strain 1): 0.8 µg/mL; MIC ([16]; Klebsiella pseumoniae strain 2): 0.2 µg/mL; MIC ([16]; Klebsiella pseumoniae strain 3): 0.8 µg/mL; MIC [18, 25]: > 100 µg/mL; MIC [18, 26]: > 100 µg/mL; MIC [19, 27]: 0.4 µg/mL; MIC [19, 29]: 0.1 µg/mL; MIC [20, 28]: 1.6 µg/mL; MIC [21]: 3.1 µg/mL; MIC ([22]; Enterobacter cloacae strain 1): > 100 µg/mL; MIC ([22]; Enterobacter cloacae strain 2): 1.6 µg/mL; MIC ([22]; Enterobacter cloacae strain 3): 100 µg/mL
3 | CC(=O)OCC1=C(C(=O)[O-])N2C(=O)[C@@H](NC(=O)/C(=N\O)c3c[se]c(N)n3)[C@H]2SC1.[Na+] [Product L, (6R, 7R)-3-(acetoxymethyl)-7-[2-(2-amino-4-selenazolyl)-2-[(Z)-hydroxyimino]-acetamido]-8-oxo-5-thia-1-azabicyclo[4.2.0]oct-2-ene-2-carboxylic acid sodium salt] | 0.1 | 0.4 | 0.08 | ≤ 0.025 | 0.2 | 0.4 | 0.4 | 0.4 | 0.4 | ≤ 0.025 | 0.05 | 0.05 | 3.1 | 0.025 | ≤ 0.025 | ≤ 0.025 | 1.6 | 0.1 | ≤ 0.025 | 0.4 | MIC ([13]; Escherichia coli strain 4): 6.3 µg/mL; MIC ([15]; Serratia marcescens strain 1): 0.8 µg/mL; MIC ([15]; Serratia marcescens strain 2): 1.6 µg/mL; MIC ([15]; Serratia marcescens strain 3): 0.1 µg/mL; MIC ([16]; Klebsiella pseumoniae strain 1): ≤ 0.025 µg/mL; MIC ([16]; Klebsiella pseumoniae strain 2): ≤ 0.025 µg/mL; MIC ([16]; Klebsiella pseumoniae strain 3): ≤ 0.025 µg/mL; MIC [18, 25]: 25 µg/mL; MIC [18, 26]: 25 µg/mL; MIC [19, 27]: 0.05 µg/mL; MIC [19, 29]: ≥ 0.025 µg/mL; MIC ([20]; Pseudomonas aeruginosa strain 1): 50 µg/mL; MIC [20, 28]: 12.5 µg/mL; MIC [21]: 0.8 µg/mL; MIC ([22]; Enterobacter cloacae strain 1): 200 µg/mL; MIC ([22]; Enterobacter cloacae strain 2): 6.3 µg/mL; MIC ([22]; Enterobacter cloacae strain 3): 25 µg/mL
